Like-named read-outs stand apart in the source and are kept apart here. Bounds are passed on as bounds.

The subject of one experiment is Calu3. The experiment is described as follows: In vitro anti-proliferative activity (NBB assay), Calu3. It is filed as cell-based, human. The conditions noted are these: 72 h. How it is done:
(§1) Cells (4×10^3 cells/well) were seeded in a microtiter plate (96 wells) and incubated overnight before the treatment. […] After the media was removed, the cells were fixed with formaldehyde (3%; 50 μL) in PBS and stained with NBB reagent (0.05%, 0.1 M sodium acetate, 9% acetic acid; 50 μL) for overnight. The stained cells in each well were washed thrice gently with deionized water and solubilized in sodium hydroxide solution (50 mM; 100 μL). The cell viability was determined by measuring the absorbance of 620 nm in each well by microplate reader. The experiments were repeated in triplicate.

Another experiment has as its system HCC827. The experiment is described as follows: In vitro anti-proliferative activity (NBB assay), HCC827. The experiment is classed as cell-based, human. The conditions noted are these: 72 h. On the procedure:
as §1

A further experiment deals with NCI-H460. The experiment in a line: In vitro anti-proliferative activity (NBB assay), NCI-H460. It is filed as cell-based. Conditions: Table 1; 72 h; read-out: IC50 NCI-H460 lung. On the procedure: as §1
The test system of another experiment is A549. The experiment is described as follows: In vitro anti-proliferative activity (NBB assay), A549. It is filed as cell-based. The conditions noted are these: Table 1; 72 h; read-out: IC50 A549 lung. On the procedure: as §1
Another experiment relates to SKBR3. The experiment is described as follows: In vitro anti-proliferative activity (NBB assay), SKBR3. The conditions noted are these: 72 h. The experiment is classed as cell-based. How it is done: as §1
The next experiment deals with MDA-MB-231. The experiment in a line: In vitro anti-proliferative activity (NBB assay), MDA-MB-231. The conditions noted are these: Table 1; 72 h; read-out: IC50 MDA-MB-231 breast. It is filed as cell-based. On the procedure:
as §1

The next experiment has as its system SKOV3. The experiment in a line: In vitro anti-proliferative activity (NBB assay), SKOV3. The experiment is classed as cell-based. The conditions noted are these: Table 1; 72 h; read-out: IC50 SKOV3 ovarian. On the procedure: as §1
Another experiment relates to NCI-N87. The experiment is described as follows: In vitro anti-proliferative activity (NBB assay), NCI-N87. The conditions noted are these: Table 1; 72 h; read-out: IC50 NCI-N87 gastric. The experiment is classed as cell-based. On the procedure: as §1
For a further experiment, the system named is BxPC3. The experiment in a line: In vitro anti-proliferative activity (NBB assay), BxPC3. It is filed as cell-based, human. The conditions noted are these: 72 h. On the procedure: as §1
The subject of a further experiment is SW1990. The experiment is described as follows: In vitro anti-proliferative activity (NBB assay), SW1990. It is filed as cell-based, human. The conditions noted are these: 72 h. On the procedure:
as §1

Another experiment concerns PANC1. The experiment in a line: In vitro anti-proliferative activity (NBB assay), PANC1. The experiment is classed as cell-based. Conditions: Table 1; 72 h; read-out: IC50 PANC1 pancreas. How it is done:
as §1

The test system of another experiment is MHCC97L. The experiment is described as follows: In vitro anti-proliferative activity (NBB assay), MHCC97L. The experiment is classed as cell-based. The conditions noted are these: Table 1; 72 h; read-out: IC50 MHCC97L liver. How it is done: as §1
Another experiment has as its system HCT116. The experiment in a line: In vitro anti-proliferative activity (NBB assay), HCT116. It is filed as cell-based. Conditions: Table 1; 72 h; read-out: IC50 HCT116 colon. On the procedure: as §1
The subject of a further experiment is HT29. The experiment is described as follows: In vitro anti-proliferative activity (NBB assay), HT29. Conditions: Table 1; 72 h; read-out: IC50 HT29 colon. It is filed as cell-based. On the procedure:
as §1

For the next experiment, the system named is HEK293. The experiment in a line: In vitro anti-proliferative activity (NBB assay), HEK293. The experiment is classed as cell-based, human. The conditions noted are these: Table 1; 72 h; read-out: IC50 HEK293 kidney. On the procedure:
as §1

For another experiment, the system named is panel of cell lines. The experiment in a line: NBB assay, summary over the panel of cell lines. The experiment is classed as cell-based. On the procedure:
as §1

Experiment [1] relates to TROP2-overexpressed cancer cells (HCC827, Calu3, BxPC3, SW1990, SKBR3). The experiment is described as follows: NBB assay, summary over TROP2-overexpressed cancer cells. The experiment is classed as cell-based. The conditions noted are these: all the cells of Table 2. On the procedure: as §1
The test system of experiment [2] is TROP2-overexpressed cancer cells (HCC827, Calu3, BxPC3, SW1990). The experiment in a line: Flow cytometric binding study, TROP2-overexpressed cells. The conditions noted are these: flow cytometry, 4° C., 1 h. It is filed as cell-based, human. How it is done: Cells (2×10^5 cells/tube) were suspended in FACS staining buffer (2% FBS in PBS) into a 1.5 mL eppendorf tube. They were incubated with Sacituzumab, ADC-Au or IgG control respectively in staining buffer (100 μL) at 4° C. After 1 h, the cell suspensions were centrifuged at 1500 rpm for 3 min at 4° C. and washed with staining buffer (1 mL) twice to discard unbound antibodies. The cells were then incubated with Alexa Fluor 594 goat anti-human secondary antibody at 4° C. for 1 h and then subject to centrifugation. The cells were washed twice again and were resuspended in staining buffer. The mean fluorescence intensities (MFI) were measured using Beckman Cytoflex S Flow Cytometer.
Background: A flow cytometer gives signals particle by particle.

The mark [3] stands for this setting: Table 1, read-out: IC50 Calu3 lung.
Setting [4] is: Table 1, read-out: IC50 HCC827 lung.
[5] abbreviates: Table 1, read-out: IC50 SKBR3 breast.
[6] abbreviates: Table 1, read-out: IC50 BxPC3 pancreas.
Setting [7] is: Table 1, read-out: IC50 SW1990 pancreas.

As for `O=C(O)c1ccc(C2=c3ccc4[n]3[Au-]35[n]6c(ccc6C(c6ccccc6)=C6C=CC2=[N+]63)C(c2ccccc2)=C2C=CC(=[N+]25)C=4c2ccccc2)cc1.[Cl-]` (centres unmarked) [AuCOOH], the IC50 was 1760 nM with Calu3 (setting [3]); 1770 nM in the experiment on HCC827 (setting [4]); 420 nM in the experiment on NCI-H460; 690 nM with A549; 270 nM in the experiment on SKBR3 (setting [5]); 710 nM in the experiment with MDA-MB-231. The 50% inhibitory concentration (IC50) stood at 2890 nM with SKOV3; 1310 nM in the experiment with NCI-N87; 840 nM in the experiment on BxPC3 (setting [6]); 2190 nM in the experiment on SW1990 (setting [7]); 2430 nM in the experiment with PANC1; 2650 nM in the experiment with MHCC97L. For the same molecule, the IC50 in the experiment on HCT116 was 710 nM; with HT29 it was 640 nM; with HEK293, 650 nM. In addition, the “cytotoxicity / potency compared with the other gold complexes” value in the experiment on panel of cell lines was “lowest cytotoxicity”.

Turning to `C1=CC2=[N+]3C1=C(c1ccccc1)c1ccc4[n]1[Au-]31[n]3c(ccc3=C(c3ccccc3)C3=[N+]1C(=C4c1ccccc1)C=C3)=C2c1ccccc1.Cl` [AuTPP, gold (III) tetraphenylporphyrin, reference compound], the IC50 in the experiment on Calu3 (setting [3]) amounted to 290 nM; in the experiment with HCC827 (setting [4]), 140 nM; in the experiment on NCI-H460, 120 nM; in the experiment on A549, 90 nM; in the experiment on SKBR3 (setting [5]), 80 nM; in the experiment on MDA-MB-231 it was 180 nM. Also, the IC50 with SKOV3 amounted to 90 nM; with NCI-N87, 100 nM; with BxPC3 (setting [6]), 80 nM; in the experiment with SW1990 (setting [7]), 170 nM; with PANC1, 100 nM; in the experiment on MHCC97L, 150 nM. Moreover, the half-inhibitory concentration (IC50) turned out to be 150 nM in the experiment on HCT116, 120 nM with HT29 and 130 nM in the experiment with HEK293.

Consider “Sacituzumab: TROP2-targeted monoclonal antibody (MCE)”, for which the IC50 with Calu3 (Table 2, Example 1 (Sacituzumab ADC), read-out: IC50 Calu3) is more than 2000 nM; with HCC827 (Table 2, Example 1 (Sacituzumab ADC), read-out: IC50 HCC827), more than 2000 nM; in the experiment with SKBR3 (Table 2, Example 1 (Sacituzumab ADC), read-out: IC50 SKBR3) it was more than 2000 nM; with BxPC3 (Table 2, Example 1 (Sacituzumab ADC), read-out: IC50 BxPC3) it was more than 2000 nM; with SW1990 (Table 2, Example 1 (Sacituzumab ADC), read-out: IC50 SW1990) it was more than 2000 nM. For the same molecule, in experiment [1], the cell growth inhibition entry is recorded as “not obvious”. Further, in [2], the “specific binding to TROP2-overexpressed cancer cells” value is recorded as “significant specific-binding”.

The IC50 is the concentration that inhibits the measured activity by half.

(Values after patent publication US20260241028A1, “METAL-BASED ANTIBODY-DRUG CONJUGATES AND METHODS OF MAKING AND USING THEREOF” (Laboratory for Synthetic Chemistry and Chemical Biology …, priority 2024, published 2026).)
